# Source: paper PMC10997755, “Discovery of a small-molecule inhibitor that traps Polθ on DNA and synergizes with PARP inhibitors” (Nature Communications, 2024)
# Several values for one entry are separate records, joined by “and”; a condition that tells them apart may be missing. Equal values may be shown once. Entries after “also recorded” stand apart in the source; their conditions may differ.
# How the values were obtained:
# [1] = molecular target: T1, Polθ-pol (Homo sapiens, UniProt O75417); experiment: Cy5 fluorescence Polθ-pol DNA synthesis (strand displacement) IC50 assay; type: biochemical; conditions: Polθ-pol DNA synthesis, Cy5 fluorescence
# T1 construct: purified recombinant human Polθ-pol (comprising amino acid residues 1792–2590); made in house
# T1 sequence (O75417 1792-2590): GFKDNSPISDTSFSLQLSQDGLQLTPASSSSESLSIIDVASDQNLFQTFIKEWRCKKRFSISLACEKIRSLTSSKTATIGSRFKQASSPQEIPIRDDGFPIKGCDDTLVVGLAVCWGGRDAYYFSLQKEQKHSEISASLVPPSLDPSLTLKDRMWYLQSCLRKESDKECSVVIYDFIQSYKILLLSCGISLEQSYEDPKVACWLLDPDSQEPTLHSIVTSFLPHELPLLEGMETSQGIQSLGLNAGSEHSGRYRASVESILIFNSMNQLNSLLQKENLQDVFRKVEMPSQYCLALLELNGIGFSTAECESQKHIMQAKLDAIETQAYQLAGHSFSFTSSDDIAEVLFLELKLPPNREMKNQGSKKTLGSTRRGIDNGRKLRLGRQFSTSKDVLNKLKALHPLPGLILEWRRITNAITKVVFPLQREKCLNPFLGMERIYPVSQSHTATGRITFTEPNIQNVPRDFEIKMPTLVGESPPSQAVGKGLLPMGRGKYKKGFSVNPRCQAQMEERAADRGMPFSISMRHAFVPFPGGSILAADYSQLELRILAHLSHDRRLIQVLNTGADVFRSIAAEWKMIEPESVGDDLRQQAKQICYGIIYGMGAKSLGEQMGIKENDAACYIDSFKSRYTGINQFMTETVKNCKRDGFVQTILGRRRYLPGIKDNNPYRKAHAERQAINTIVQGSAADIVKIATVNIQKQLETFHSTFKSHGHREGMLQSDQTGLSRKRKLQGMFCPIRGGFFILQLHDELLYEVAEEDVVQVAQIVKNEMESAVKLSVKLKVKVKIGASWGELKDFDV
# Summary of the method: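 Recombinant human Polθ-pol (aa 1792–2590, 5 nM) extends 60 nM Cy5/quencher primer-template with 50 uM dNTPs in 25 mM Tris pH 7.8, 10 mM MgCl2, 2.5% DMSO at 37 °C. After 18 min, stopped with 20 mM EDTA; Cy5 fluorescence read, 7-point series in triplicate, inhibition from the mean.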
# [2] = tested on: DLD1 BRCA2 -/- cells; experiment: Clonogenic assay; type: cell-based; conditions: for Average number of colonies counted / Normalized (colonies): DLD1 BRCA2 NULL, 3 treatments were given; for average / percent suvival / replicate counts: DLD1-BRCA2 null cells
# Summary of the method: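 Cells seeded at low density (300–1000 per well, by plate size and genotype), medium changed every 2 days, colonies grown 10–12 days. Fixed in water:ethanol:acetic acid, stained with 0.5% crystal violet, then counted; IC50 from ≥3 independent experiments, mean ± SEM.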
# [3] = tested on: DLD1 Parental cells; experiment: Clonogenic assay; type: cell-based; conditions: DLD1 PARENTAL, 3 treatments were given
# Summary of the method: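 Colony formation by BRCA-deficient, PALB2-mutant and wild-type cells (300–1000 cells/well) and MEFs (300 cells/well) over 10–12 days, medium changed every 2 days. Colonies fixed, stained with 0.5% crystal violet and counted; IC50 from 3 or more independent experiments.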
# [4] = LogP; type: physicochemical; conditions: method not stated
# [5] = RTX-152 1.25 micro M + OLA 3.125 nano M
# [6] = RTX-152 1.25 micro M + OLA 6.25 nano M
# [7] = RTX-152 1.25 micro M + OLA 12.50 nano M
# [8] = RTX-152 1.25 micro M + OLA 25.00 nano M
# [9] = RTX-152 1.25 micro M + OLA 50.00 nano M
# [10] = RTX-152 1.25 micro M + OLA 100.00 nano M
# [11] = RTX-152 1.25 micro M, OLA 0.00 nano M
# [12] = RTX-152 2.5 micro M + OLA 3.125 nano M
# [13] = RTX-152 2.5 micro M + OLA 6.25 nano M
# [14] = RTX-152 2.5 micro M + OLA 12.50 nano M
# [15] = RTX-152 2.5 micro M + OLA 25.00 nano M
# [16] = RTX-152 2.5 micro M + OLA 50.00 nano M
# [17] = RTX-152 2.5 micro M + OLA 100.00 nano M
# [18] = RTX-152 2.5 micro M, OLA 0.00 nano M
# [19] = RTX-152 5 micro M + OLA 3.125 nano M
# [20] = RTX-152 5 micro M + OLA 6.25 nano M
# [21] = RTX-152 5 micro M + OLA 12.50 nano M
# [22] = RTX-152 5 micro M + OLA 25.00 nano M
# [23] = RTX-152 5 micro M + OLA 50.00 nano M
# [24] = RTX-152 5 micro M + OLA 100.00 nano M
# [25] = RTX-152 5 micro M, OLA 0.00 nano M
smiles,measurement,setting,value
CN1CCN(c2cc(C(F)(F)F)cc(C(F)(F)F)c2OC(=O)N(C)c2ccc(F)cc2)C1=O [RTx-152],IC50,[1],6 nM and 6.2 nM and 4 to 6 nM
same,Average number of colonies counted,[2]; 2.5 micro M,47.3333
same,Normalized (colonies),[2]; 2.5 micro M,65.5172
same,Average number of colonies counted,[2]; 5 micro M,40.3333
same,Normalized (colonies),[2]; 5 micro M,54.4828
same,Average number of colonies counted,[2]; 10 micro M,22.6667
same,Normalized (colonies),[2]; 10 micro M,31.0345
same,Average number of colonies counted,[2]; 20 micro M,15
same,Normalized (colonies),[2]; 20 micro M,20.6897
same,IC50,"[2]; Homo sapiens, DLD-1, read-out: IC50 clonogenic survival",~6000 nM
same,average,[2]; [5],78.6667
same,percent suvival,[2]; [5],75.8842%
same,replicate counts,[2]; [5],75 and 82 and 79
same,average,[2]; [6],66.6667
same,percent suvival,[2]; [6],64.3087%
same,replicate counts,[2]; [6],67 and 70 and 63
same,average,[2]; [7],40
same,percent suvival,[2]; [7],38.5852%
same,replicate counts,[2]; [7],36 and 44 and 40
same,average,[2]; [8],32.6667
same,percent suvival,[2]; [8],31.5113%
same,replicate counts,[2]; [8],35 and 31 and 32
same,average,[2]; [9],20
same,percent suvival,[2]; [9],19.2926%
same,replicate counts,[2]; [9],22 and 20 and 18
same,average,[2]; [10],11
same,percent suvival,[2]; [10],10.6109%
same,replicate counts,[2]; [10],8 and 11 and 14
same,average,[2]; [11],95
same,percent suvival,[2]; [11],91.6399%
same,replicate counts,[2]; [11],91 and 96 and 98
same,average,[2]; [12],71
same,percent suvival,[2]; [12],68.4887%
same,replicate counts,[2]; [12],68 and 70 and 75
same,average,[2]; [13],51
same,percent suvival,[2]; [13],49.1961%
same,replicate counts,[2]; [13],54 and 47 and 52
same,average,[2]; [14],37.6667
same,percent suvival,[2]; [14],36.3344%
same,replicate counts,[2]; [14],35 and 40 and 38
same,average,[2]; [15],21.6667
same,percent suvival,[2]; [15],20.9003%
same,replicate counts,[2]; [15],26 and 20 and 19
same,average,[2]; [16],13
same,percent suvival,[2]; [16],12.5402%
same,replicate counts,[2]; [16],10 and 16 and 13
same,average,[2]; [17],3.667
same,percent suvival,[2]; [17],3.537%
same,replicate counts,[2]; [17],7 and 2 (2×)
same,average,[2]; [18],80
same,percent suvival,[2]; [18],77.1704%
same,replicate counts,[2]; [18],82 and 80 and 78
same,average,[2]; [19],45.3333
same,percent suvival,[2]; [19],43.7299%
same,replicate counts,[2]; [19],49 and 42 and 45
same,average,[2]; [20],38
same,percent suvival,[2]; [20],36.6559%
same,replicate counts,[2]; [20],38 and 32 and 44
same,average,[2]; [21],19.6667
same,percent suvival,[2]; [21],18.9711%
same,replicate counts,[2]; [21],19 and 22 and 18
same,average,[2]; [22],7.333
same,percent suvival,[2]; [22],7.074%
same,replicate counts,[2]; [22],10 and 8 and 4
same,average,[2]; [23],1.667
same,percent suvival,[2]; [23],1.608%
same,replicate counts,[2]; [23],3 and 1 (2×)
same,average,[2]; [24],1
same,percent suvival,[2]; [24],0.9646%
same,replicate counts,[2]; [24],1 and 0 and 2
same,average,[2]; [25],73
same,percent suvival,[2]; [25],70.418%
same,replicate counts,[2]; [25],70 and 78 and 71
same,potency in BRCA2-null cells compared with RTx-161,[2]; clonogenic survival,moderately higher IC50
same,combination with Olaparib,"[2]; clonogenic survival, Combenefit synergy",synergistic activity
same,selective killing / synthetic lethality in BRCA2-null DLD1 cells,"[2]; colony survival, versus BRCA2-WT",selective killing; also recorded: induction of synthetic lethality
same,Average number of colonies counted,[3]; 2.5 micro M,115
same,Normalized (colonies),[3]; 2.5 micro M,97.4576
same,Normalized (colonies),[3]; 5 micro M,97.4576
same,Normalized (colonies),[3]; 10 micro M,95.7627
same,Average number of colonies counted,[3]; 20 micro M,113
same,Normalized (colonies),[3]; 20 micro M,95.7627
same,logP,[4],4.2
